Data published in US20250387388A1, “COMPOUND AS TRK INHIBITOR AND/OR RET INHIBITOR AND USE THEREOF” (Medinno Pharmaceutical Technology (Zhuhai) Co., Ltd., priority 2022, published 2025).

System: vitiligo model in mice
Experiment: Vitiligo model in mice (monobenzone)
Type: in vivo, C57BL/6 mice
Details: for IL-6 level in serum / TNF-α level in serum: 3% MDI-1228 gel
Experimental: • (1) Normal control group (5 mice, no treatment) • (2) Vitiligo model group (8 mice, no treatment) • (3) Vitiligo model+vehicle treatment group (8 mice, blank gel preparation, dose: 1.5 g/kg, twice daily) • (4) Vitiligo model+positive control drug treatment group (8 mice, 0.03% Tacrolimus, twice daily, 50 mg per dose) • (5) Vitiligo model+MDI-1228 (0.5%) compound gel preparation group (8 mice, 1 g/kg, twice daily) • (6) Vitiligo model+MDI-1228 (1%) compound gel preparation group (8 mice, 1.5 g/kg, twice daily) • (7) Vitiligo model+MDI-1228 (3%) compound gel preparation group (8 mice, 1.5 g/kg, twice daily) • Experimental environment: Temperature 20° C.-26° C., humidity 40%-70%
Modeling: Mice were acclimated for 7 days and subjected to vitiligo modeling by removing the black hair from a 2 cm^2 area on the back of the mice and applying the medication with a spatula using moderate force. The normal control group was administrated with Vaseline 50 mg once daily; and the model group was administrated with 40% monobenzone cream 50 mg once daily for 93 consecutive days.
Model validation: One mouse from the blank group and one from the model group were selected for model validation. The criteria for hair depigmentation assessment: Observe the skin & hair depigmentation daily and record the scores. Divide the depigmented area into the treated area and the non-treated area, with a total score of 5 for each area, making a total of 10 points for each mouse. The scoring criteria for mouse skin & hair depigmentation: 0 points for no depigmentation, 1 point for depigmentation area of 0-10%, 2 points for depigmentation area of 11%-25%, 3 points for depigmentation area of 26%-50%, 4 points for depigmentation area of 51%-75%, and 5 points for depigmentation area of 76%-100%.
After a 35-days treatment administration, a 15-day visual observation of the therapeutic efficacy for vitiligo in the treated mice began, with observations conducted every 3 days (for a total of 5 times) and photographs taken during each observation. The criteria for evaluating efficacy were as follows: The depigmented areas were divided into treated and non-treated areas, with a total score of 5 for each area, making a total of 10 points for each mouse. The scoring criteria for mouse skin & hair depigmentation are: 0 points for no depigmentation, 1 point for a depigmentation area of 0-10%, 2 points for a depigmentation area of 11%-25%, 3 points for a depigmentation area of 26%-50%. 4 points for a depigmentation area of 51%-75%, and 5 points for a depigmentation area of 76%-100%.
(1) HE Staining: The removed tissue was rinsed with running water for several hours, dehydrated through a series of ethanol solutions (70%, 80%, 90%), and then treated with a mixture of pure alcohol and xylene at a ratio of 1:1 for 15 minutes, followed by xylene I for 15 minutes and xylene II for 15 minutes (until transparent). The tissue was then placed in a mixture of xylene and paraffin at a ratio of 1:1 for 15 minutes, followed by immersion with paraffin I and paraffin II each for 50-60 minutes. The tissue was embedded in paraffin and sectioned. The sections were mounted, baked, dewaxed and hydrated in distilled water. The resulting sections were then stained in hematoxylin solution for 3 minutes, differentiated in a hydrochloric acid alcohol solution for 15 seconds, slightly washed, blued in a return blue solution for 15 seconds, rinsed with running water, stained with eosin for 3 minutes, rinsed with running water, dehydrated, cleared, and mounted for microscopic examination.
(2) ELISA detection: A double-antibody one-step sandwich Enzyme-linked Immunosorbent Assay (ELISA) kit was used. A capture antibody for the mouse target indicators was pre-coated onto microplate wells, to which samples, standards, and HRP-labeled detection antibodies were added sequentially, followed by incubation and thorough washing. […]

[1] = 0.5%, 1%, positive control drug, vs. model group

CCc1cc(O)c(F)cc1-c1ccc2c(-c3nc4c([nH]3)CN(C(=O)N3CC[C@H](O)C3)C4)n[nH]c2c1 [MDI-1228, (S)-(2-(6-(2-ethyl-5-fluoro-4-hydroxyphenyl)-1H-indazol-3-yl)-4,6-dihydropyrrolo[3,4-d]imidazol-5-(1H)-yl)(3-hydroxylpyrrolidin-1-yl)ketone]
Skin & hair depigmentation area scores (0.5%, 1%, 3% MDI-1228 gel twice daily, vs. model group): a reduction in depigmentation area scores
IL-6 level in serum [1]: a reduced IL-6 level
TNF-α level in serum [1]: a reduced TNF-α level
Skin HE staining (hair follicles, melanin granules) (1% and 3% MDI-1228 gel): the most significant effects
IL-6 level in serum: the most significant reduction in IL-6 level
TNF-α level in serum: the most significant reduction in TNF-α level
Area under the curve (AUC) of depigmentation scores (3% MDI-1228 gel 1.5 g/kg twice daily, vs. model group): the greatest reduction in AUC scores
Therapeutic effect in vitiligo mice (conclusion) (different concentrations of MDI-1228): significant therapeutic effect
